From patent US11866474B2, “Modulating angiogenesis by proteomimetics of vascular endothelial growth factor” (UNIVERSITY OF SOUTH FLORIDA, priority 2021, dated 2024)

Tests used:
HUVECs [1] = test: Transwell cell migration assay; format: cell-based, human; conditions: 10 μM, in the presence of VEGF165 (50 ng/mL), 12 h
From the text: Endothelial cell migration is an essential component of angiogenesis mediated by the VEGF pathway and can be used to assess the effect of drugs on the VEGF pathway. A Transwell migration assay was used to test the effect of the mimic sequences on the migration of human umbilical endothelial cells (HUVECs). […] Given the findings that V2 has a much stronger binding affinity for VEGFR1 than VEGFR2 (FIG. 12), the inventors speculated that this stimulatory effect may be due to its specific binding to VEGFR1, the decoy receptor. It is plausible that inhibition of VEGF-A binding to VEGFR-1 leads to an increased level of VEGF-A to bind and activate VEGFR-2, an indirect activation of the main angiogenic receptor.67 Cell migration assay was performed in triplicates on Transwell permeable support, 8.0 μm pore (Corning, USA). […] Migrated cells at the bottom of the membrane were fixed with 4% paraformaldehyde and stained with Crystal Violet at 37° C. for 20 min and 10 min respectively and counted with Nikon Inverted Microscope ECLIPSE Ti-U.

[2] = target: T1, VEGFR-2 extracellular domain (Met 1-Glu 764) (Homo sapiens, UniProt P35968); test: Surface plasmon resonance binding to VEGFR-2 extracellular domain; conditions: for Binding affinity (Kd) to VEGFR-2 as determined by SPR: extracellular domain, one-to-one binding model
T1 construct: VEGFR-2 extracellular domain (Met 1-Glu 764); purchased Creative BioMart USA KDR-6966H
Procedure: (§1) Surface plasmon resonance (SPR) assays were carried out to determine the binding affinities of the VEGF mimic sequences toward the extracellular domains of VEGFR-1 and VEGFR-2 (FIGS. 13 and 14).
(§2) Binding kinetics of VEGF mimics to VEGFR-1 were measured by surface plasmon resonance (SPR) using a Biacore T200 (General Electric Co.). […] protein extracellular domain (Met 1-Asn 756) (FLT1-3809H, Creative BioMart USA) was covalently coupled to CMS chip following manufacturer's instructions. Samples were prepared in RBS-EP+ buffer (pH 7.4) at different concentration and flowed over the sensor chip to interact with the immobilized protein, followed by the running buffer. The dissociation data was collected, and a different concentration was assayed after redundant samples were removed from the protein by treating with KCl (1 M). The final binding kinetics was obtained by fitting using the T200 software with a one-to-one binding model. Binding affinities of mimic sequences to VEGFR-2 were measured using VEGFR-2 extracellular domain (Met 1-Glu 764) (KDR-6966H, Creative BioMart USA) in a similar fashion.

VEGFR-2 = target: T2, VEGFR-2 (Homo sapiens, UniProt P35968); test: Immunofluorescence binding assay with anti-VEGFR-2 antibody; format: cell-based; conditions: HUVECs treated with 10 μM, compared to control
T2 construct: endogenous in cells; host or cells: HUVEC
Procedure: (§3) On the basis of the assays conducted, the inventors speculated that distinct cell signaling and angiogenic response are due to the sequences V2 and V3 binding to different VEGFR subtypes. To further characterize the binding profiles of V2 and V3 to VEGFR-1 and VEGFR-2, immunofluorescence studies were carried out using HUVECs and antibodies specific to each receptor. Cells treated with V2 and V3 (10 μM) were fixed and treated with anti-VEGFR-1 and anti-VEGFR-2 antibodies, followed by FITC-labeled secondary antibody and a DAPI counterstain. […] HUVEC cells grown in m-Dish 35 mm, high Glass Bottom (#81158 Ibidi) were treated with V2 and V3 overnight at 37° C. Cells were then washed with TBST twice and fixed with 4% formaldehyde solution (Fisher Chemical) for 20 min at room temperature. This was followed by TBST wash twice and blocking with TBST—5% BSA blocking solution for 1 h at room temperature. After washing the cells with TBST three times, the cells were incubated with anti-VEGFR-1 antibody (Proteintech) and anti-VEGFR-2 antibody (Invitrogen) overnight at 4° C. […] A Nikon fluorescence microscope was used for imaging cells and image analysis was done with Image J software (ImageJ 5.53e, National Institute of Health, USA).

HUVECs [3] = test: Capillary tube formation assay; format: cell-based, human; conditions: 2 μM, in the presence of VEGF165 (50 ng/mL), 24 h
Procedure: The ultimate effect of angiogenesis is the formation of vasculature that can support healing, survival, and proliferation. Next, the inventors used HUVECs to investigate the effect of the AA peptide sequences on the formation of capillary-like tube structures in vitro in the presence of VEGF165. […] Nutrient starved HUVECs, for 24 h in 0.5% FBS (sEBM) endothelial basal medium (EBM), were harvested and resuspended in 10% FBS (mEGM) endothelial growth medium. Cells were then seeded in 48 well plate coated with basement membrane extract (BME). To prepare the plates, Costar48 well culture plates were coated with basement membrane (Corning Matrigel Basement Membrane Matrix LDEV-free, 354234) and incubated for 30 min at 37° C. 5×10^4 cells were seeded in each well and treated with VEGF mimic sequences and/or VEGF165, or left untreated. Formation or lack thereof of tube-like structures was monitored over a 24 h period with a Nikon Inverted Microscope ECLIPSE Ti-U.

Akt (P-AKT) = test: Western blot of Akt phosphorylation in HUVEC lysates; format: cell-based, human; conditions: with VEGF-A stimulation
Procedure: (§4) The effect of VEGF-mimicking sequences on VEGF-A-mediated activation of Akt, a key VEGF downstream signal,^68 and VEGFR-2 was then examined by Western blot (FIG. 8). […] However, the activation of the VEGF pathway by V2 and QK is dependent on the presence of VEGF-A (FIG. 8E). […] HUVECs (1×10^6) were starved for 24 h and treated with a V1, V2, V3 and QK in the presence or absence of VEGF-A165 at 37° C. for 24 h. Cells were then lysed with a lysis buffer containing Protease and Phosphatase Inhibitor (Thermo Scientific) to obtain total cellular proteins, and the amount of protein was quantified using the BCA Protein Assay Kit (Thermo Scientific, Waltham, MA). Proteins were then denatured by boiling at 100° C. for 10 min in the sample buffer and separated by electrophoresis on 10% SDS-[…] minigels. Target proteins were transferred to polyvinylidene difluoride membranes and blocked with 5% BSA in TBST solution for 1 h and then washed three times with TBST (5 min each time). […]

HUVECs [4] = test: Wound healing (scratch-wound motility) assay; format: cell-based, human; conditions: 10 μM, in the presence of VEGF165 (50 ng/mL), 24 h
Procedure: Wound healing is facilitated by the VEGF pathway's effect on cell migration and proliferation.14 The effect of the helical mimic sequences on cell migration and invasion was tested on HUVECs in the presence of VEGF165 using a scratch-wound motility assay. […] HUVEC cells (10^5) were seeded on a 12 well tissue culture plate and allowed to grow for 12 h. The attached cells were then scratched with a sterile […] pipette tip and treated with mimic sequences (10 μM) and/or VEGF165 (50 ng/mL) in serum free medium. […] The wound widths were measured by ImageJ (version 1.50).

VEGFR-1 = target: T3, VEGFR-1 (Homo sapiens, UniProt P17948); test: Immunofluorescence binding assay with anti-VEGFR-1 antibody; format: cell-based; conditions: HUVECs treated with 10 μM, compared to control
T3 construct: immunofluorescence studies were carried out using HUVECs and antibodies specific to each receptor; endogenous in cells; host or cells: HUVEC
Procedure: as §3

[5] = target: T4, VEGFR-1 extracellular domain (Met 1-Asn 756) (Homo sapiens, UniProt P17948); test: Surface plasmon resonance binding to VEGFR-1 extracellular domain; conditions: one-to-one binding model
T4 construct: VEGF-1 protein extracellular domain (Met 1-Asn 756); purchased Creative BioMart USA FLT1-3809H
Procedure: as §1, §2

VEGFR-2 (P-VEGFR-2) = test: Western blot of VEGFR-2 phosphorylation in HUVEC lysates; format: cell-based, human; conditions: with VEGF-A stimulation
Procedure: as §4

T1 sequence (P35968 20-764): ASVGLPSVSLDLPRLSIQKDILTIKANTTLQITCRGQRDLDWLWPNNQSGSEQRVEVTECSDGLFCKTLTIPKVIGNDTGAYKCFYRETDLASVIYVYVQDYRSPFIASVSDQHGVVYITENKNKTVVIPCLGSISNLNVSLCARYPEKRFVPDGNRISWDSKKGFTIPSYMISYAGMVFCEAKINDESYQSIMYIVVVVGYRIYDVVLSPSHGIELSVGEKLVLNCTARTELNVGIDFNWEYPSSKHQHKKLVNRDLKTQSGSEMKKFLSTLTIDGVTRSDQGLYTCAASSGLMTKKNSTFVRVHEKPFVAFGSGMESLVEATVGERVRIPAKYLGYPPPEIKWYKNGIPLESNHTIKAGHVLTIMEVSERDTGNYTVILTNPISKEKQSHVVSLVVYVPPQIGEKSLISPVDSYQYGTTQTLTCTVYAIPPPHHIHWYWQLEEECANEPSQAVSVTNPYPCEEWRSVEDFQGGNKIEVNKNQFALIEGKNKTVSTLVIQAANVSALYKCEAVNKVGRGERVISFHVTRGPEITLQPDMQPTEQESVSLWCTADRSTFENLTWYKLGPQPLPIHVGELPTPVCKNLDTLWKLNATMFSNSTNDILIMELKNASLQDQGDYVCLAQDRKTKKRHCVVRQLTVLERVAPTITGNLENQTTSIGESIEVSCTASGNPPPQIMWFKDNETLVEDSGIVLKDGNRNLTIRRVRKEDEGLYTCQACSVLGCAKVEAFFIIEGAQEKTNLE
T4 sequence (P17948 27-756): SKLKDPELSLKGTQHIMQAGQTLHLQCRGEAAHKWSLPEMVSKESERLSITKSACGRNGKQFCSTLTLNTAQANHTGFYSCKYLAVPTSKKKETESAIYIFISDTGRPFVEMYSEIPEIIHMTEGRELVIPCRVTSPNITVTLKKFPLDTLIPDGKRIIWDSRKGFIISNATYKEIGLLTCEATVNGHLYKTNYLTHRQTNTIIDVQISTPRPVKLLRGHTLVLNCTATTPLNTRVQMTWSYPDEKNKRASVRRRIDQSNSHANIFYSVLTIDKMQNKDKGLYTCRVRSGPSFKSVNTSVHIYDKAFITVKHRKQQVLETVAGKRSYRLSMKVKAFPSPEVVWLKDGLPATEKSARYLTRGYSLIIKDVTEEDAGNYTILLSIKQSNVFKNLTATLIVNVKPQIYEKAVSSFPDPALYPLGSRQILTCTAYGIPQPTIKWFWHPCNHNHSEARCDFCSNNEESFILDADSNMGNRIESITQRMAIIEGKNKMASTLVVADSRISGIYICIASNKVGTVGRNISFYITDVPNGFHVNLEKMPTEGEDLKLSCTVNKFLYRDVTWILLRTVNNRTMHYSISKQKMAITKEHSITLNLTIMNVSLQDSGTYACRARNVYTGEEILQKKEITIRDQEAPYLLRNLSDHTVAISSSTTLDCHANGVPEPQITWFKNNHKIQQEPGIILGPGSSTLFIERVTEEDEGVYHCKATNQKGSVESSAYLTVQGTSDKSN
T3 sequence (P17948 27-1338): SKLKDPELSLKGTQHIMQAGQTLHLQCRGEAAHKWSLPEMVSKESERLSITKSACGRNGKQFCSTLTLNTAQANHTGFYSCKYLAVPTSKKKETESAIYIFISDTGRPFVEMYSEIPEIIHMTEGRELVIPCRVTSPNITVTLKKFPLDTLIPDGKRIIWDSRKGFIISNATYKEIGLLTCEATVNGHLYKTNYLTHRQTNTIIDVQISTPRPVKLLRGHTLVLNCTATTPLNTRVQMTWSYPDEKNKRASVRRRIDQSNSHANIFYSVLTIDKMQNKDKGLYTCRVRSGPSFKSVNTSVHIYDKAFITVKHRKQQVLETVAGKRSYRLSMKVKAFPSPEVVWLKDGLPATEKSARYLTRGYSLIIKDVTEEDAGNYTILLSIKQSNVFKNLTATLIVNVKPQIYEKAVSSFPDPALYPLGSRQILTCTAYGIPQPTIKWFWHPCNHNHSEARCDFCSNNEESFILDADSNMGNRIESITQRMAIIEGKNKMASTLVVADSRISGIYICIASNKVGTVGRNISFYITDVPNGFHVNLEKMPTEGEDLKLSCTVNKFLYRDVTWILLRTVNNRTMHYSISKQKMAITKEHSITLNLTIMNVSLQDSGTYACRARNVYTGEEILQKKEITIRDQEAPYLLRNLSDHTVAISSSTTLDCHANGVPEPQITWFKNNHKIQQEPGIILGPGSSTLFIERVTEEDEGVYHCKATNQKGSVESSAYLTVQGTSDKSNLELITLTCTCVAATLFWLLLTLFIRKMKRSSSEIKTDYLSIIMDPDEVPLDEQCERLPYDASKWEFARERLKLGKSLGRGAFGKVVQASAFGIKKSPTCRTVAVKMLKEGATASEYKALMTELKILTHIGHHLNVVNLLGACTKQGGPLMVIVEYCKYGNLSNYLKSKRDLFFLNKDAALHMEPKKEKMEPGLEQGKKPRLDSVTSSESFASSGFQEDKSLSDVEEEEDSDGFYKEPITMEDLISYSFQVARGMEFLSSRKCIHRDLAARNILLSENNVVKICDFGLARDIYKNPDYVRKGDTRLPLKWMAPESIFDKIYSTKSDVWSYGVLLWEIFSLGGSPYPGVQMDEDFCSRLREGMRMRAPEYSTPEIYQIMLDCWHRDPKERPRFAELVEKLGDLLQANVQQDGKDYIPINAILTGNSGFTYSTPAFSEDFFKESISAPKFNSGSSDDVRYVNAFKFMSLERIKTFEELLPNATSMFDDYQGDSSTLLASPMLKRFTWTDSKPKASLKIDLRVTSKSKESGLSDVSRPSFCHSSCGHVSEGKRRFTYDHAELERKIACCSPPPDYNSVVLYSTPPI
T2 sequence (P35968 20-1356): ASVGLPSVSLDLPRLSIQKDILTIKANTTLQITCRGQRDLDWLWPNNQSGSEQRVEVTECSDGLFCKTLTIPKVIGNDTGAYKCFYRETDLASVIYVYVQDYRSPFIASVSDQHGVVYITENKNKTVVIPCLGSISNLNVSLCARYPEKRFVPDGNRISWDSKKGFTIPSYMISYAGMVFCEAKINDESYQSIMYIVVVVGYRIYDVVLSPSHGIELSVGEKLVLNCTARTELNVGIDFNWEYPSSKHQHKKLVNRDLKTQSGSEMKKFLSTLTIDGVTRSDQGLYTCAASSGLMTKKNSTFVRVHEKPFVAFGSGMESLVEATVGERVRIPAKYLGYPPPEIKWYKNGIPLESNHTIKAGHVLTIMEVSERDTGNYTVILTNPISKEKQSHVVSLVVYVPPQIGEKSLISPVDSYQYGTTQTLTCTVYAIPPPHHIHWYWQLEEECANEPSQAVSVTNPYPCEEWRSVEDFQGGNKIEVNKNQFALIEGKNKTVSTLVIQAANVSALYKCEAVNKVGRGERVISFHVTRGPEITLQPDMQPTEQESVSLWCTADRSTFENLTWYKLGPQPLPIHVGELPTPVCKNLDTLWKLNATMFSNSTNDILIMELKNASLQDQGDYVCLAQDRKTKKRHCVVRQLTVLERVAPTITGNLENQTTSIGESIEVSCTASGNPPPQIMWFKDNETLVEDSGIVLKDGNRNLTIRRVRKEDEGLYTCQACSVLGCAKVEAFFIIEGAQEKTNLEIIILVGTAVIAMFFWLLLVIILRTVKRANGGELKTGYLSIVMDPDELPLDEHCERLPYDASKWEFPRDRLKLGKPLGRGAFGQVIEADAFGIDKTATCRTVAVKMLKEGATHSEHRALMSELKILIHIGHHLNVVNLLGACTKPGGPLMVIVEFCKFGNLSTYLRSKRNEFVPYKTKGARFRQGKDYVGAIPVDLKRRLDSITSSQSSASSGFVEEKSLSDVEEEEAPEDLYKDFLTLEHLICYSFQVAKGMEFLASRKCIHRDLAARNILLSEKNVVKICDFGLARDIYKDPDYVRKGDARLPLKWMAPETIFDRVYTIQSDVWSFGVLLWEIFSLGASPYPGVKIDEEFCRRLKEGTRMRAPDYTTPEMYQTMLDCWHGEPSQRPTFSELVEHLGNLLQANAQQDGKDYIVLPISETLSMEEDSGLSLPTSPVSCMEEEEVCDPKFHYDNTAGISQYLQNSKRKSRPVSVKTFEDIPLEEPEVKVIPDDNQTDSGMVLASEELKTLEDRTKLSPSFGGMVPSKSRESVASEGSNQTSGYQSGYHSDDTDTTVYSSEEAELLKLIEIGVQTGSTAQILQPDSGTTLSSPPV

Compound	Number of HUVECs migrating (Transwell) (HUVECs [1])	Selectivity for VEGFR2 (SPR binding) ([2]; VEGFR2 over VEGFR1)	Binding affinity (Kd) to VEGFR-2 as determined by SPR [2]	Fluorescence with anti-VEGFR-2 antibody (VEGFR-2)	Capillary tube formation (HUVECs [3])	Inhibition of phosphorylation of Akt at low concentration (Akt (P-AKT); 100 nM)	Phosphorylation of Akt (P-AKT) (Akt (P-AKT); 0.1, 0.5, 1, 10 μM)	Cell migration in wound healing assay (HUVECs [4])	Fluorescence with anti-VEGFR-1 antibody (VEGFR-1)	Binding affinity (Kd) to VEGFR-1 as determined by SPR [5]	Inhibition of phosphorylation of VEGFR-2 at low concentration (VEGFR-2 (P-VEGFR-2); 100 nM)	Phosphorylation of VEGFR-2 (P-VEGFR-2) (VEGFR-2 (P-VEGFR-2); 0.1, 0.5, 1, 10 μM)
CC(=O)N[C@@H](CCC(=O)O)CN(CC(=O)N[C@@H](CC(C)C)CN(CC(=O)N[C@@H](Cc1c[nH]c2ccccc12)CN(CC(=O)N[C@@H](CCC(=O)O)CN(CC(=O)N[C@@H](Cc1ccc(O)cc1)CN(CC(=O)N[C@@H](CCCCN)CN(CC(=O)N[C@@H](Cc1ccc(O)cc1)CN(CC(=O)N[C@@H](C)CN(CC(N)=O)S(C)(=O)=O)S(C)(=O)=O)S(C)(=O)=O)S(=O)(=O)CCN)S(=O)(=O)CC(C)C)S(=O)(=O)CC(C)C)S(=O)(=O)CCN)S(=O)(=O)CCN [V3]	significantly lowered	remarkable selectivity	submicromolar binding affinity	significant reduction of fluorescence	substantial inhibition of capillary tube formation	potent inhibition	dose-dependent inhibition of phosphorylation	virtually completely blocked wound motility	almost no effect on intensity of fluorescence	good binding affinities	potent inhibition	dose-dependent inhibition of phosphorylation
CC(=O)N[C@@H](CCC(=O)O)CN(CC(=O)N[C@@H](CC(C)C)CN(CC(=O)N[C@@H](Cc1ccccc1)CN(CC(=O)N[C@@H](CCC(=O)O)CN(CC(=O)N[C@@H](Cc1ccc(O)cc1)CN(CC(=O)N[C@@H](CCCCN)CN(CC(=O)N[C@@H](Cc1ccc(O)cc1)CN(CC(=O)N[C@@H](C)CN(CC(N)=O)S(C)(=O)=O)S(C)(=O)=O)S(C)(=O)=O)S(=O)(=O)CCN)S(=O)(=O)CC(C)C)S(=O)(=O)CC(C)C)S(=O)(=O)CCN)S(=O)(=O)CCN [V2]			good binding affinities							submicromolar binding affinity		
